Test results: patent publication EP0115142B1, “Chroman compounds” (priority 1982, dated 1984)
Counter-ions that a name gives are not always drawn. Marks after values point to notes of the source that are not given here.

Columns and labels:
DBA-2 mice = assay: Audiogenic seizure (AS): reversal of clonidine protection; type: in vivo; conditions: for Minimal effective doses (MED) AS (i.p.): one hour before clonidine 0.4 mg/kg i.p., sound 30 minutes later, mice
Excerpt: Audiogenic Seizure (AS): Sound-produced seizures in mice are blocked by clonidine, an alpha2- agonist, and such a model may be used to measure the activity of a particular compound as an alpha2- antagonist, specifically as it decreases clonidine activity. The activity of clonidine in this regard and its relationship to alpha2-receptors is described by R. Horton et al. in the Journal of Pharmacology and Experimental Therapeutics, Vol. 214, No. 2, pages 437-442 (1980). DBA-2 mice (20-22 days of age; 8 to 12 g) are used in these studies. Mice are tested individually in a glass bell jar (112 inches high and 12 inches in diameter) which is placed in a sound-attenuated chamber. An electric bell is used to generate a noise level of 116-118 decibels. Mice are allowed to acclimate to the chamber for 30 seconds and are then exposed to the sound for 60 seconds. The auditory stimulation causes a convulsive episode characterized by wild running, clonus, tonus and death. […] Thus, the test compound is dissolved in a hydroxypropylmethylcellulose (HPMC) vehicle consisting of 0.1% Tween° 80 and 0.5% hydroxypropylmethylcellulose in an 0.9% by weight sodium chloride aqueous solution and injected intraperitoneally (i.p.) into the mouse. (Tween^O is a registered trademark of ICI Americas Inc., Wilmington, Delaware, USA, for emulsifiers, wetting and dispersing agents. Tween@ is polyoxyethylene sorbitan mono-oleate). After one hour, the mouse is challenged with clonidine intraperitoneally at 0.4 mg/kg of body weight. After a further 30 minutes, the mouse is subjected to a tone from a high intensity bell and the mouse is observed for seizure activity. The activity is scored on the basis of whether clonic and/or tonic seizures occur.

[1] = system: Male Sprague-Dawley (HLA) rats; assay: Clonidine hypoactivity (CH) test; type: in vivo
Experimental: The suppression can be prevented by administration of an alpha2-antagonist as described by J. Malick et al. in Federation Proceedings, Vol. 40, page 244 (1981), a publication of the Federation of the American Societies of Experimental Biology. Male Sprague-Dawley (HLA) rats, weighing 140 to 180 g, were used throughout these studies. Spontaneous locomotor activity was measured in Animex activity monitors supplied by Columbus Instruments, Columbus, Ohio; groups of three animals were placed in a chamber of clear "Plexiglas", 26.5 x 26.5 x 15 cm for the test. ("Plexiglas" is a trademark of Rohm & Haas Co., Philadelphia, Pennsylvania, USA, for thermoplastic polymethyl methacrylate type polymers and plastic sheets). All animals received two injections prior to testing according to the following paradigm: vehiclec (HPMC) or antagonist was administered subcutaneously 30 minutes prior to intraperitoneal administration of either HPMC or clonidine. […] Animals were placed into the motor activity chambers as soon as possible after the second injection and total activity counts were recorded for 20 minutes. Five groups of 3 rats each were used for each dose of drug or control.

[2] = target: T1, alpha2 binding site in human platelets (Homo sapiens, UniProt P08913); assay: Tritiated yohimbine binding assay
T1 construct: from tissue; host or cells: human platelets (washed and disrupted membrane preparation)
T1 sequence (P08913 1-465): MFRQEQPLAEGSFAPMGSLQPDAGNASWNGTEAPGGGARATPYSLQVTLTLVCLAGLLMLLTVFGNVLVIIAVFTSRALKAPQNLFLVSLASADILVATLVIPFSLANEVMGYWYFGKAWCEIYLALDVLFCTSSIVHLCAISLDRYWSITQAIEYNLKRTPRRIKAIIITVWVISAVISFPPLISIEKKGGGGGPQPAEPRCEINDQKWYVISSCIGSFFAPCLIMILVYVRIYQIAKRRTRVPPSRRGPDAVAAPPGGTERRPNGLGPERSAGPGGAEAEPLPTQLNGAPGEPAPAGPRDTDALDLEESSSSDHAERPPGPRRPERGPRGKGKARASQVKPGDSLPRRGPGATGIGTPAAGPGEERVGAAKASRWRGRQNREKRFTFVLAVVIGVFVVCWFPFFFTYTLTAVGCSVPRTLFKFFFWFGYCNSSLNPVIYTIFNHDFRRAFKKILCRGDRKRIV
Experimental: The test is conducted as described by M. Daiguji et al. in Life Sciences, Vol. 28, pages 2705-2717 (1981). Platelets are washed and disrupted as described in the Daiguji article. The amount of platelet used per assay varies between 0.2 to 1.5 mg of protein. […] For the determination of non-specific binding, 20 microliters of 10 millimolar norepinephrine is used. The incubation is conducted at 25°C for 60 minutes, after which the membranes are filtered under vacuum on a GF/B filter. The filters are then counted in a scintillation counter. […] It is known that if an alpha2-agonist or alpha2-antagonist binds to alpha2 sites, such will be displaced more easily by a compound which is also of the same type, i.e., an agonist or antagonist, respectively.

mouse = assay: Mouse learned helplessness swimming test (MLHS); type: in vivo; conditions: one hour before test, time in tonic immobility
Experimental: During testing, a mouse is gently placed in the water and tested for a total of 6 minutes as follows: during the first 2 minutes the animal quickly "learns" there is no escape and spends the vast majority of the last 4 minutes floating (tonic immobility). Nothing is recorded during the first 2 minutes (learning period) but the time in seconds spent in tonic immobility during the last 4 minutes of the session is recorded. […] Control (vehicle-treated) groups are run each day and drug-treated groups are compared to these via a Student's t-test.

locus coeruleus = assay: Locus coeruleus test (single unit firing, clonidine reversal); type: in vivo, Male Sprague-Dawley rats; conditions: anesthetized rats; for clonidine required to re-suppress firing: after firing was reinstated by the test agent, i.v.; for dose that reinstated firing: i.v. infusion after clonidine 10 micrograms/kg i.v. suppressed firing
Experimental: Locus Coeruleus Test: The locus coeruleus test for alpha2-antagonist activity is predictive of anti- depressant activity as described by G. Engberg et al. in Communications in Psychopharmacology, Vol. 4, pages 233-239 (1980). The alphas-antagonistic properties of a test agent are determined as follows: Male Sprague-Dawley rats (280-320 g) are anesthetized with sodium pentobarbitol (60 mg/kg of body weight, i.p.) and placed in a stereotaxic instrument to allow precise location of the electrode in the locus coeruleus. Extracellular single unit activity is recorded from the locus coeruleus using stainless steel or tungsten microelectrodes (2-5 megohm impedance). Extracellular potentials are counted during successive 10 second intervals and recorded on a digital counter. The baseline firing rate of each neuron is determined for 3 to 5 minutes before drug administration. Drugs are injected intravenously in a volume of 0.1 ml; data are collected for 2 to 3 minutes between multiple drug injections. The ability of a test agent to reverse the suppressant effects of clonidine, and the total cumulative dose of clonidine required to override the test agent, are indicative of alpha2-antagonistic properties. In this test, 10 micrograms/kg of body weight of clonidine were administered by infusion intravenously to suppress firing.

| Structure (SMILES) | mice protected from audiogenic seizures (DBA-2 mice; 0.4 mg/kg of body weight, i.p., 30 minutes prior to auditory stimulation) | lowest dose that consistently produced a statistically significant reduction in motor activity ([1]; i.p., rats, pilot studies) | IC50 [2] | Minimal effective doses (MED) AS (i.p.) (DBA-2 mice) | Minimal effective doses (MED) CH (s.c.) ([1]; rat, in vivo) | Minimal effective doses (MED) MLHS (i.p.) (mouse) | clonidine required to re-suppress firing (locus coeruleus) | dose that reinstated firing (locus coeruleus) | Minimal effective doses (MED) CH (s.c.) ([1]; s.c., 30 minutes before clonidine 0.01 mg/kg i.p., rats, activity counts for 20 minutes) |
| --- | --- | --- | --- | --- | --- | --- | --- | --- | --- |
| Clc1cccc(Cl)c1N=C1NCCN1 [Clonidine, reference compound] | 100% | 0.01 mg/kg of body weight |  |  |  |  |  |  |  |
| c1ccc2c(c1)CCC(C1=NCCN1)O2 (centres unmarked) [Example 1c, 2-(2-Imidazolin-2-yl)chroman] |  |  | 34 nM | 5 mg/kg of body weight | 0.3 mg/kg of body weight | 10 mg/kg of body weight | 1280 micrograms/kg of body weight | reinstated firing at the same level |  |
| Fc1cccc2c1CCC(C1=NCCN1)O2 (centres unmarked) [Example 2e, 2-(2-Imidazolin-2-yl)-5-fluorochroman] |  |  | 3.8 nM | 1 mg/kg of body weight | 0.5 mg/kg of body weight | 30 mg/kg of body weight |  | reinstated firing at the same level |  |
| Fc1cccc2c1OC(C1=NCCN1)CC2 (centres unmarked) [Example 3e, 2-(2-Imidazolin-2-yl)-8-fluorochroman] |  |  | 53.5 nM | ~3* mg/kg of body weight |  | 30 mg/kg of body weight |  |  |  |
| c1ccc2c(c1)OCC(C1=NCCN1)O2 (centres unmarked) [RX 781094, 2-[2-(1,4-benzodioxanyl)]-22imidazoline hydrochloride, reference compound] |  |  |  | 2.5 mg/kg of body weight |  |  |  |  | 0.03 mg/kg of body weight |
| COC(=O)[C@@H]1[C@H]2C[C@H]3c4[nH]c5ccccc5c4CCN3C[C@@H]2CC[C@@H]1O [yohimbine, reference compound] |  |  |  |  |  |  | 160 micrograms/kg of body weight | 2.0 mg/kg of body weight |  |
